In the METLIN SMRT retention time set (Domingo-Almenara et al. 2019) one finds RP-LC retention time data, which are given here for 79 compounds.

This data set in a line: gradient 5% acetonitrile 3 min, to 50% in 2 min, to 85% in 15 min, held 3 min, 100 µL/min. The following applies: column: Zorbax Extend-C18 2.1 x 50 mm; eluents: water / acetonitrile, 0.1% formic acid. The procedure, abridged: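 The mobile phases were water and acetonitrile, each with 0.1% formic acid, pumped at 100 μL/min through a Zorbax Extend-C18 column (2.1 × 50 mm, 1.8 μm). Pure standards were injected as mixtures of ~100 molecules and detected by a quadrupole time-of-flight mass spectrometer in positive and negative ionization mode. Retention time came from computationally picked adduct peaks, each inspected by hand.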
For `CNC(=O)C1Cc2ccccc2N1C(=O)c1ccccc1SC(F)F` (centres undefined), the RP-LC retention time came out at 715 s.

As to `O=C(NCc1ccccc1)C1CC(=O)N(CCc2c[nH]c3ccc(F)cc23)C1` (centres undefined), the RP-LC retention time turned out to be 764 s. As for `COc1ccc(NC(=O)N2CCC(c3nc(C(=O)N4CCCC4)c(C)o3)CC2)cc1`, the figure is 727 s; as for `CCOC(=O)c1c(C)[nH]c(C(=O)N2CCCC(C(=O)NCCCN3CCOCC3)C2)c1C` (centres undefined), 593 s. As for `Cc1ccc(-c2noc(-c3cccn(CC(=O)NC(C)C)c3=O)n2)cc1`, the figure is 764 s.

For `O=C(Nc1ccc(F)cc1F)C1(CCO)CCN(Cc2ccccc2)C1` (centres undefined), the RP-LC retention time was 620 s. With `O=C(NCC1CCCO1)c1ccc(CN2CCN(Cc3ccccc3)C(=O)C2=O)cc1` (centres undefined) the figure was 669 s. With `CCNS(=O)(=O)c1cccnc1Nc1cccc(Cl)c1` the figure was 1030 s; with `O=C(c1sc2ncccc2c1-n1cccc1)N1CCN(Cc2ccccc2)CC1`, 648 s.

Compound `Cc1nc(N2CCC(C(=O)Nc3ccc(F)cc3F)CC2)c2c(C)c(C)oc2n1` displayed an RP-LC retention time of 874 s. With `CCN(c1cccc(C)c1)S(=O)(=O)c1cc2n(c1)CCCNC2=O` the figure was 720 s. With `CC(C(=O)NCCCN1CCCC1=O)C1CCN(C(=O)c2cc3cc(Cl)ccc3[nH]2)CC1` (centres undefined) the figure was 698 s. As for `CC(C)Cn1c(=O)c(N2CCN(C(=O)Nc3ccccc3)CC2)nc2ccncc21`, the figure is 577 s; as for `COC(=O)C1=CN(c2cc(F)ccc2C)c2cc(F)ccc2S1(=O)=O`, 842 s; as for `COc1ccccc1CNC(=O)c1c(O)c2cccnc2[nH]c1=O`, 933 s. For the compound `Cc1oc(C(C)C)nc1C(=O)NC1CCCCC1`, the RP-LC retention time turned out to be 1020 s.

`COc1ccc(OC)c(NC(=O)c2cc(S(=O)(=O)N3CCCC(C)C3)cn2C)c1` (centres undefined): the RP-LC retention time worked out at 638 s.

`CC1(C)C(=O)Nc2ccc(S(=O)(=O)N3CCC(c4noc(-c5cccnc5)n4)C3)cc21` (centres undefined) registered an RP-LC retention time of 722 s. With `CCc1ccc(NC(=O)Cn2nc3c(Oc4cc(C)cc(C)c4)nccn3c2=O)cc1` the figure was 943 s; with `Cn1ccc2cc(S(=O)(=O)N3CCCC(C(=O)NCCCN4CCc5ccccc5C4)C3)ccc21` (centres undefined), 685 s. Compound `COc1ccccc1N1CCN(C(=O)C2CC(=O)N(c3ccc4oc(C)nc4c3)C2)CC1` (centres undefined) gave an RP-LC retention time of 693 s. In turn, `Cc1ccc(Cc2noc(CN3CCCC3=O)n2)cc1` came in with an RP-LC retention time of 758 s. As for `Cc1nnc2c(=O)n(CC(=O)N3CCCC(C)C3)c3cccnc3n12` (centres undefined), the figure is 668 s; as for `Cn1c(N2CCCC(C(=O)NCc3ccc(F)cc3)C2)cc(=O)n(C)c1=O` (centres undefined), 680 s.

Compound `O=C(Cn1cccc1-c1nnc(-c2ccccc2)o1)Nc1ccc(F)c(F)c1` registered an RP-LC retention time of 997 s.

Turning to `CCCCS(=O)(=O)c1cc2c(cc1NC(=O)Cc1cccc(F)c1)n(C)c(=O)n2C`, the RP-LC retention time turned out to be 855 s. Compound `Cc1ccc(NC(=O)N2CCC(c3cc(N)on3)CC2)cc1` returned an RP-LC retention time of 686 s. With `S=C1NCCN1c1ccccc1Cl` the figure was 702 s; with `Cc1ccc(CNC(=O)C2(C)CCCN(C(=O)Nc3ccc(C)cc3Cl)C2)cc1` (centres undefined), 1080 s. As for `O=C(Nc1ccc(OCc2nnc(-c3ccccc3)o2)cc1)c1n[nH]c2c1CCCC2`, the figure is 886 s; as for `Cc1ccc(-c2nc3nc(C)cc(C)n3c2Nc2ccc(C(C)C)cc2)cc1`, 870 s. As for `COc1ccc(NC(=O)CSc2nccc(N3CCN(c4cc(C)ccc4C)CC3)n2)cc1Cl`, the figure is 936 s.

`Cc1cc(N(C)C)n2nc(CN3CCN(c4ccccc4)CC3)nc2n1` gave an RP-LC retention time of 607 s. As for `Cc1cccc(N2CCN(C(=O)C3CCN(C(=O)C4Sc5ccccc5NC4=O)CC3)CC2C)c1` (centres undefined), the figure is 725 s; as for `CCn1c(C(=O)N2CCCC(C(=O)NC(C)C34CC5CC(CC(C5)C3)C4)C2)cc2sccc21` (centres undefined), 1210 s; as for `CC(C)CCNC(=O)C1(C)CN(S(=O)(=O)c2ccccc2)CC(=O)N1CCCN1CCCCC1` (centres undefined), 674 s.

Turning to `CNC(=O)[C@H]1O[C@@H](n2cnc3c(NCc4ccc(N)cc4)ncnc32)C(O)[C@H]1O` (some centres undefined), the RP-LC retention time turned out to be 569 s.

As to `CCOc1cc2c(cc1OCC)C1C(C(=O)NCCOC)c3ccccc3C(=O)N1CC2` (centres undefined), the RP-LC retention time was 744 s. As for `CCN1CCCn2cc(S(=O)(=O)N3CCN(c4ccccc4)CC3)cc2C1=O`, the figure is 813 s; as for `CC1CCN(S(=O)(=O)c2ccc3nn(CC(=O)OC(C)C)c(=O)n3c2)CC1`, 929 s. As for `O=C(CCc1c(-c2ccc(Br)cc2)nc2ccccn12)NCc1ccc(F)cc1`, the figure is 701 s. With `COc1ccc(-c2noc(Cc3nnc(-c4cccc(Cl)c4)o3)n2)cc1OC` the figure was 973 s. Turning to `Cn1cc(S(=O)(=O)N2CCCCC2)cc1C(=O)N1CCCCC1`, the RP-LC retention time came out at 833 s. As for `COc1ccc(CNC(=O)Nc2ccc(-c3nc(-c4cc(C)ccc4C)co3)cc2)cc1`, the figure is 1200 s. As for `CN(C)c1ccc(-c2nc3ncc(Cl)c(N4CCN(CC(=O)Nc5nccs5)CC4)c3[nH]2)cc1`, the figure is 704 s; as for `CCCN1C(=O)COc2ccc(-c3noc(-c4ccc(OC)cc4OC)n3)cc21`, 1100 s. As for `COc1ccc(-c2noc(-c3nnn4c3COC(c3ccc(C)cc3C)C4)n2)cc1` (centres undefined), the figure is 1250 s. In turn, `O=C(Nc1nc(-c2ccccc2)c(-c2ccccc2)o1)NC1CCCCC1` displayed an RP-LC retention time of 1320 s. Consider `CCC(=O)c1cn(CC(=O)NC(C)c2ccc3c(c2)OCCCO3)c2ccccc12` (centres undefined), for which the RP-LC retention time turned out to be 848 s. `Cc1cc(-c2ncc(CC(=O)Nc3ccc(-c4cnccn4)cn3)cc2C)ccn1` displayed an RP-LC retention time of 652 s. With `Cc1cc(NC(=O)C2CCN(C(=O)Cc3c(C)noc3C)CC2)no1` the figure was 621 s; with `COc1ccc(NS(=O)(=O)c2cc(-c3nc(C)c(C(=O)N4CCCC4)s3)n(C)c2)cc1OC`, 727 s; with `CCOc1ccc(C2c3c(oc4ccc(C)cc4c3=O)C(=O)N2CCCN2CCOCC2)cc1` (centres undefined), 812 s. As for `Cc1noc(C2(NC(=O)c3ccc(Br)cc3)CCCCC2)n1`, the RP-LC retention time came to 924 s. As for `CCOC(=O)C1CCN(C(=O)c2nc3ccccn3c2-c2ccsc2)CC1`, the figure is 664 s.

As for `COCC(O)Cn1ccnc1[N+](=O)[O-]` (centres undefined), the RP-LC retention time amounted to 609 s. As for `CN1C(=O)[C@H]2CN(Cc3cccc4[nH]ccc34)C[C@H]2C1=O`, the figure is 552 s; as for `Cc1nnc2n1CCC(NC(=O)CC1=CCCCC1)CC2` (centres undefined), 605 s.

`COc1ccc2c(c1)C1(CCN(C(=O)C(C)C)C1)C(=O)N2` (centres undefined): the RP-LC retention time stood at 646 s. As for `O=C(COc1ccc(F)cc1)NCC(=O)N1CCN(c2ccccn2)CC1`, the figure is 609 s. Regarding `COc1ccc(N2CC(c3nc(-c4cccs4)no3)CC2=O)cc1Cl` (centres undefined), the RP-LC retention time worked out at 930 s. `COc1ccc(C(=O)Nc2ccc3c(c2)Sc2ncccc2C(=O)N3C)c(OC)c1` showed an RP-LC retention time of 706 s. With `Cc1ccc(-c2cc3c(=O)n(Cc4noc(CN5CCc6ccccc65)n4)ccn3n2)cc1` the figure was 1100 s; with `Cc1nn2c(CNC(=O)C3CCN(C(=O)c4ccccc4)CC3)c(C)nc2s1`, 584 s; with `Cc1ccc(Cn2c(=O)n(CCNC(=O)c3ccoc3)c3ncccc32)cc1`, 760 s. With `O=C(c1ccccc1)N1CCC(CCNS(=O)(=O)Cc2ccccc2)CC1` the figure was 803 s; with `O=C(c1n[nH]c2ccccc12)N1CCn2c(nnc2-c2ccccc2)C1`, 664 s; with `Cc1ccc(N2CCN(C(=O)C(C)(C)C)CC2)nn1`, 531 s. With `Cc1ccc(-c2noc(C3CCCN3S(=O)(=O)c3ccc(Br)cc3)n2)cc1` (centres undefined), the RP-LC retention time came out at 1230 s. As for `O=C(c1nnn(Cc2ccc(Cl)cc2)c1-n1cccc1)N1CCSCC1`, the figure is 981 s. As for `CN1C(=O)C2CCCCN2c2ccc(C(=O)NCCCN3CCCCCC3)cc21` (centres undefined), the figure is 627 s; as for `O=C(Nc1ccc(Cl)cc1)C1CCCN(c2nc3ccccc3nc2C(F)(F)F)C1` (centres undefined), 1290 s; as for `Cn1c(CN2CCN(C(=O)Cc3ccc(Cl)cc3)CC2)nc2cc(C(=O)N3CCCC3)ccc21`, 646 s. As for `CC1CCN(S(=O)(=O)c2nn(C)cc2C(=O)O)CC1`, the figure is 707 s; as for `CC(C)(C)OC(=O)Nc1cnc(C(=O)O)cn1`, 625 s; as for `CCc1ccc(-c2cc(C(=O)N3CCN(C)CC3)[nH]n2)cc1`, 620 s. Turning to `O=C(Nc1ccc(F)cc1F)N1CCC(N2CCN(Cc3ccccc3)C(=O)C2=O)CC1`, the RP-LC retention time turned out to be 681 s. Consider `CC(C)c1noc(C2CCCN(S(=O)(=O)c3cccs3)CCC(=O)NCC2)n1` (centres undefined), for which the RP-LC retention time is 787 s. `Cc1ccc2c(=O)c3c([nH]c2c1C)CCN(CC(=O)NCc1ccccc1F)C3` returned an RP-LC retention time of 621 s.
